Reference: PubChem BioAssay (NCI)
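The compound was tested at five concentrations on cells cultured in 96-well plates, with a 48-hour exposure period. TGI denotes the concentration required for complete inhibition of growth.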

How the values were obtained:
Test in all cases: inhibition of tumour cell growth, NCI panel, 48 h
UACC-62 melanoma = tested on: UACC-62 melanoma
HS 578T breast = tested on: HS 578T breast
ACHN renal = tested on: ACHN renal
SR leukemia = tested on: SR leukemia
M14 melanoma = tested on: M14 melanoma
LOX IMVI melanoma = tested on: LOX IMVI melanoma
SNB-75 CNS = tested on: SNB-75 CNS
786-0 renal = tested on: 786-0 renal
A549 NSCLC = tested on: A549 NSCLC
EKVX NSCLC = tested on: EKVX NSCLC
K-562 leukemia = tested on: K-562 leukemia
SK-OV-3 ovarian = tested on: SK-OV-3 ovarian
DU-145 prostate = tested on: DU-145 prostate
UACC-257 melanoma = tested on: UACC-257 melanoma
RXF 393 renal = tested on: RXF 393 renal
NCI-H226 lung = tested on: NCI-H226 lung
RPMI-8226 leukemia = tested on: RPMI-8226 leukemia
A498 renal = tested on: A498 renal

Row | Structure (SMILES) | TGI (UACC-62 melanoma) [µM] | TGI (HS 578T breast) [µM] | TGI (ACHN renal) [µM] | TGI (SR leukemia) [µM] | TGI (M14 melanoma) [µM] | TGI (LOX IMVI melanoma) [µM] | TGI (SNB-75 CNS) [µM] | TGI (786-0 renal) [µM] | TGI (A549 NSCLC) [µM] | TGI (EKVX NSCLC) [µM] | TGI (K-562 leukemia) [µM] | TGI (SK-OV-3 ovarian) [µM] | TGI (DU-145 prostate) [µM] | TGI (UACC-257 melanoma) [µM] | TGI (RXF 393 renal) [µM] | TGI (NCI-H226 lung) [µM] | TGI (RPMI-8226 leukemia) [µM] | TGI (A498 renal) [µM]
1 | Cc1ccc(/C(Cl)=C/C=C(C#N)C#N)cc1 | 15.7 | 5.58 | 5.29 | 7.47 | 6.37 | 3.82 | 37.6 | 3.77 | 56 | 27.5 | 19.4 | 26.1 | 23.9 | 6.31 | 7.66 | 17.2 | – | –
2 | CC(C)(C)C(=O)OCOP(=O)(OCOC(=O)C(C)(C)C)OCC1OC(n2ccc(=O)[nH]c2=O)C(N=[N+]=[N-])C1O (centres undefined) | 14.6 | 7.64 | 17.8 | – | 14.3 | 3.44 | 14.1 | 10.3 | 14 | 20.6 | > 100 | – | 17.6 | 18.1 | 7.07 | 22 | 5.22 | –
3 | Cc1ccc([N+](=O)[O-])cc1S(=O)(=O)Nc1ccc(C2=NN(c3ccc([N+](=O)[O-])cc3[N+](=O)[O-])C(c3cccs3)C2)cc1 (centres undefined) | – | 79.1 | 81.6 | 58.6 | 32.9 | 39.9 | 81.3 | 38.6 | > 100 | 59.2 | > 100 | 77.9 | > 100 | 42.1 | 54.3 | 60.1 | 60.5 | –
4 | CC(=O)c1sc2c(c1OC(=O)c1ccco1)c(=O)n(-c1ccccc1)c(=S)n2-c1ccccc1 | – | 20 | – | 72.2 | 28.3 | 39.3 | 78.1 | > 100 | > 100 | 59.1 | > 100 | 55.3 | 76.9 | 88.7 | 28.2 | 16.1 | 41.6 | –
5 | C[N+](C)(C)CCCSc1nc2ccccc2[nH]1 | > 100 | > 100 | > 100 | – | > 100 | > 100 | – | > 100 | > 100 | > 100 | > 100 | > 100 | > 100 | > 100 | > 100 | > 100 | > 100 | > 100
6 | COc1ccc(C[C@@H](CO)NC2=C(C#N)CCC2)cc1 | > 100 | 93 | > 100 | – | > 100 | > 100 | 95.1 | > 100 | > 100 | > 100 | > 100 | > 100 | > 100 | > 100 | > 100 | > 100 | 59.6 | 97.9
7 | O=c1cc(N2CCNCC2)nc2ccccn12 | > 100 | > 100 | > 100 | – | > 100 | > 100 | > 100 | > 100 | > 100 | > 100 | > 100 | > 100 | > 100 | > 100 | > 100 | > 100 | > 100 | > 100
8 | COc1ccc2c(c1)-c1nc(=S)n(CCCN(C)C)c3ccc([N+](=O)[O-])c(c13)N2 | 25.9 | 5.6 | 14.4 | – | 22.1 | 4.57 | 22.8 | 1.36 | 14.8 | 14.5 | 3.04 | 19.4 | 17.9 | 3.6 | 1.87 | 24.4 | 4.31 | 22.2
9 | O=c1oc2ccccc2cc1-c1csc(Nc2ccc(F)cc2)n1 | 43.9 | 4.61 | 26.3 | – | 13.6 | 14.9 | 4.57 | 3.17 | 3.23 | 8.63 | 20.6 | 15.6 | 11.3 | > 52 | 28.2 | 19.7 | 4.44 | 5.09
10 | CCOC(=O)N(NC(=O)NC(C)C)c1ccccc1 | > 100 | > 100 | > 100 | > 100 | > 100 | > 100 | > 100 | > 100 | > 100 | > 100 | > 100 | > 100 | – | > 100 | > 100 | > 100 | – | > 100
11 | N#CC1C(=O)N(c2ccccc2)NC12OC(=O)c1ccncc12 (centres undefined) | > 20 | – | > 20 | > 20 | > 20 | > 20 | – | > 20 | > 20 | > 20 | > 20 | > 20 | > 20 | > 20 | > 20 | > 20 | > 20 | > 20
12 | O=P1(O)c2ccccc2CCc2ccccc21 | > 100 | > 100 | – | – | > 100 | > 100 | > 100 | > 100 | > 100 | > 100 | > 100 | > 100 | > 100 | > 100 | > 100 | > 100 | > 100 | –
13 | COC(=O)/C=C(/C=C1/C(C#N)=C(N)N(c2ccc(Cl)cc2)C1(C)/C(=C/C(=O)OC)C(=O)OC)C(=O)OC (centres undefined) | > 100 | – | > 100 | > 100 | > 100 | 84.6 | 76 | > 100 | – | > 100 | 50.5 | > 100 | > 100 | > 100 | – | – | > 100 | > 100
14 | C/C(Cl)=N/OC(=O)Nc1ccc(S(N)(=O)=O)c(C)c1 | 35.6 | > 79.4 | 5.37 | – | 25.2 | 6.19 | 34.2 | 4.29 | 38.3 | 13 | 3.35 | > 58.3 | 30.5 | 27.9 | 31.9 | 47.6 | 6.49 | 41.3
